Assay results as given in patent publication US10179790B2 (THOMAS HELLEDAYS STIFTELSE FOR MEDICINSK FORSKNING, priority 2014, dated 2019).

Key:
[1] = biological target: MTH1 (Homo sapiens, UniProt P36639); assay: MTH1 enzymatic assay and IC50 value determination (malachite green, 96- and 384-well format); type: biochemical; settings: hydrolysis of dGTP (100 μM), MTH1 6 nM, pyrophosphatase-coupled malachite green, 15 minutes at 22° C.
In short: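 MTH1 (6 nM) hydrolysed dGTP (100 μM) for 15 min at 22 °C in Tris-acetate buffer with Mg2+, DTT, Tween 20 and excess pyrophosphatase, 1% DMSO. Pi detected with malachite green at 630 nm. IC50 from nonlinear 4-parameter fit of 11–12-point dilution series.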

[2] = tested on: cancer cell; assay: Cell viability assay (resazurin); type: cell-based; settings: 72 h; 3 days with compound, resazurin fluorescence; cell line not named
Experimental: The utility of the compounds of the present invention can be illustrated, for example, by their activity in vitro in the cancer cell clonogenic and/or viability assay described below. The link between activity in tumor cell clonogenic assay and anti-tumor activity in the clinical setting has been well established in the art (e.g. see ref Silverstini et al Stem Cells 1993, 11(6), 258-35).
Cells are seeded into 96 well plates (1000-3000 cells/well) in DMEM GlutaMAX™ or other suitable media dependent on cell line and incubated overnight in 5% CO2, 37° C. Thereafter cells are treated with compound or vehicle and left in incubator for 3 days until staining with resazurin. Cells are incubated in resazurin (diluted in suitable media) at 37° C. for 2 hours before measuring the fluorescence (Ex544/Em590).
The compounds to be tested are nano-dispensed in 11 concentrations, directly in 384-well cell plates, with a final DMSO concentration <1%. Cells are seeded in cell plates, pre-dispensed with compounds, 50 μl/well (600-1200 cells/well). After 3 days culture in 5% CO2, 37° C., resazurin diluted in PBS is added, 10 μl/well, and cells are incubated 3 hours before measuring fluorescence (Ex544/Em590).

SMILES | IC50 [1] [nM] | IC50 [2] [nM]
Cc1c(Cl)cccc1-c1cc(NCCc2ccc3c(c2)NC(=O)CO3)nc(N)n1 [Example 48, 6-(2-{[2-amino-6-(3-chloro-2-methylphenyl)pyrimidin-4-yl]amino}ethyl)-3,4-dihydro-2H-1,4-benzoxazin-3-one] | < 200 | < 500
COC(=O)c1cnc(NCCNc2cc(-c3cccc(C)c3C)nc(N)n2)cn1 [Example 49, methyl 5-[(2-{[2-amino-6-(2,3-dimethylphenyl)pyrimidin-4-yl]amino}ethyl)amino]pyrazine-2-carboxylate] | < 200 | < 500
Cc1c(Cl)cccc1-c1cc(NCCc2cccc(S(C)(=O)=O)c2)nc(N)n1 [Example 52, 6-(3-chloro-2-methylphenyl)-4-N-[2-(3-methanesulfonylphenyl)ethyl]pyrimidine-2,4-diamine] | < 200 | < 500
Cc1c(Cl)cccc1-c1cc(NCCc2cccc(S(N)(=O)=O)c2)nc(N)n1 [Example 53, 3-(2-{[2-amino-6-(3-chloro-2-methylphenyl)pyrimidin-4-yl]amino}ethyl)benzene-1-sulfonamide] | < 200 | < 500
Nc1nc(NCCc2cccc(S(N)(=O)=O)c2)cc(-c2cccc(Cl)c2Cl)n1 [Example 54, 3-(2-{[2-amino-6-(2,3-dichlorophenyl)pyrimidin-4-yl]amino}ethyl)benzene-1-sulfonamide] | < 200 | < 500
Cc1c(Cl)cccc1-c1cc(NCCOc2ccc(C(N)=O)cn2)nc(N)n1 [Example 55, 6-(2-{[2-amino-6-(3-chloro-2-methylphenyl)pyrimidin-4-yl]amino}ethoxy)pyridine-3-carboxamide] | < 200 | < 500
Cc1c(Cl)cccc1-c1cc(NCCNc2ccc3c(c2)NC(=O)C(C)(C)O3)nc(N)n1 [Example 56, 6-[(2-{[2-amino-6-(3-chloro-2-methylphenyl)pyrimidin-4-yl]amino}ethyl)amino]-2,2-dimethyl-3,4-dihydro-2H-1,4-benzoxazin-3-one] | < 200 | < 500
Cc1c(Cl)cccc1-c1cc(NCCOc2nccc(C(N)=O)n2)nc(N)n1 [Example 57, 2-(2-{[2-amino-6-(3-chloro-2-methylphenyl)pyrimidin-4-yl]amino}ethoxy)pyrimidine-4-carboxamide] | < 200 | < 500
Cc1c(Cl)cccc1-c1cc(NCCc2ccc(NC(=O)C(C)(C)C)cc2)nc(N)n1 [Example 59, N-[4-(2-{[2-amino-6-(3-chloro-2-methylphenyl)pyrimidin-4-yl]amino}ethyl)phenyl]-2,2-dimethylpropanamide] | < 200 | < 500
Cc1c(Cl)cccc1-c1cc(NCCc2ccc(NS(=O)(=O)CC(F)(F)F)cc2)nc(N)n1 [Example 60, N-[4-(2-{[2-amino-6-(3-chloro-2-methylphenyl)pyrimidin-4-yl]amino}ethyl)phenyl]-2,2,2-trifluoroethane-1-sulfonamide] | < 200 | < 500
Cc1c(Cl)cccc1-c1cc(NCCc2ccc(NC(=O)NC(C)C)cc2)nc(N)n1 [Example 61, 1-[4-(2-{[2-amino-6-(3-chloro-2-methylphenyl)pyrimidin-4-yl]amino}ethyl)phenyl]-3-(propan-2-yl)urea] | < 200 | < 500
Cc1c(Cl)cccc1-c1cc(NCCc2ccc(NC(=O)OC(C)(C)C)cc2)nc(N)n1 [Example 62, tert-butyl N-[4-(2-{[2-amino-6-(3-chloro-2-methylphenyl)pyrimidin-4-yl]amino}ethyl)phenyl]carbamate] | < 200 | < 500
CCS(=O)(=O)Nc1ccc(CCNc2cc(-c3cccc(Cl)c3C)nc(N)n2)cc1 [Example 64, N-[4-(2-{[2-amino-6-(3-chloro-2-methylphenyl)pyrimidin-4-yl]amino}ethyl)phenyl]ethane-1-sulfonamide] | < 200 | < 500
Cc1cc(C)c(-c2cc(NCCc3ccc(S(N)(=O)=O)cc3)nc(N)n2)cc1C [Example 65, 4-(2-{[2-amino-6-(2,4,5-trimethylphenyl)pyrimidin-4-yl]amino}ethyl)benzene-1-sulfonamide] | < 200 | < 500
COc1cc(C)c(-c2cc(NCCc3ccc(S(N)(=O)=O)cc3)nc(N)n2)cc1C [Example 66, 4-(2-{[2-amino-6-(4-methoxy-2,5-dimethylphenyl)pyrimidin-4-yl]amino}ethyl)benzene-1-sulfonamide] | < 200 | < 500
Cc1ccc(C)c(-c2cc(NCCc3ccc(S(N)(=O)=O)cc3)nc(N)n2)c1 [Example 70, 4-(2-{[2-amino-6-(2,5-dimethylphenyl)pyrimidin-4-yl]amino}ethyl)benzene-1-sulfonamide] | < 200 | < 500
Cc1c(-c2cc(NCCc3ccc(S(N)(=O)=O)cc3)nc(N)n2)cc(Cl)c(Cl)c1Cl [Example 72, 4-(2-{[2-amino-6-(3,4,5-trichloro-2-methylphenyl)pyrimidin-4-yl]amino}ethyl)benzene-1-sulfonamide] | < 200 | < 500
Cc1cc(Cl)cc(-c2cc(NCCc3ccc(S(N)(=O)=O)cc3)nc(N)n2)c1F [Example 73, 4-(2-{[2-amino-6-(5-chloro-2-fluoro-3-methylphenyl)pyrimidin-4-yl]amino}ethyl)benzene-1-sulfonamide] | < 200 | < 500
Cc1c(Cl)cc(Cl)cc1-c1cc(NCCc2ccc(S(N)(=O)=O)cc2)nc(N)n1 [Example 74, 4-(2-{[2-amino-6-(3,5-dichloro-2-methylphenyl)pyrimidin-4-yl]amino}ethyl)benzene-1-sulfonamide] | < 200 | < 500
Cc1c(-c2cc(NCCc3ccc(C(N)=O)cc3)nc(N)n2)cc(Cl)c(Cl)c1Cl [Example 75, 4-(2-{[2-amino-6-(3,4,5-trichloro-2-methylphenyl)pyrimidin-4-yl]amino}ethyl)benzamide] | < 200 | < 500
Cc1c(Cl)cc(Cl)cc1-c1cc(NCCc2ccc(C(N)=O)cc2)nc(N)n1 [Example 76, 4-(2-{[2-amino-6-(3,5-dichloro-2-methylphenyl)pyrimidin-4-yl]amino}ethyl)benzamide] | < 200 | < 500
Cc1c(F)ccc(-c2cc(NCCc3ccc(C(N)=O)cc3)nc(N)n2)c1C [Example 77, 4-(2-{[2-amino-6-(4-fluoro-2,3-dimethylphenyl)pyrimidin-4-yl]amino}ethyl)benzamide] | < 200 | < 500
Cc1c(-c2cc(NCCc3ccc(C(N)=O)cc3)nc(N)n2)ccc(Cl)c1Cl [Example 78, 4-(2-{[2-amino-6-(3,4-dichloro-2-methylphenyl)pyrimidin-4-yl]amino}ethyl)benzamide] | < 200 | < 500
Cc1cc(Cl)cc(-c2cc(NCCc3ccc(C(N)=O)cc3)nc(N)n2)c1F [Example 79, 4-(2-{[2-amino-6-(5-chloro-2-fluoro-3-methylphenyl)pyrimidin-4-yl]amino}ethyl)benzamide] | < 200 | < 500
Cc1c(Cl)cccc1-c1cc(NCCc2cccc(NC(=O)C(C)(C)C)c2)nc(N)n1 [Example 81, N-[3-(2-{[2-amino-6-(3-chloro-2-methylphenyl)pyrimidin-4-yl]amino}ethyl)phenyl]-2,2-dimethylpropanamide] | < 200 | < 500
Cc1c(Cl)cccc1-c1cc(NCCc2cccc(NC(=O)NC(C)C)c2)nc(N)n1 [Example 82, 1-[3-(2-{[2-amino-6-(3-chloro-2-methylphenyl)pyrimidin-4-yl]amino}ethyl)phenyl]-3-(propan-2-yl)urea] | < 200 | < 500
Cc1c(Cl)cccc1-c1cc(NCCc2cccc(NC(=O)OC(C)(C)C)c2)nc(N)n1 [Example 83, tert-butyl N-[3-(2-{[2-amino-6-(3-chloro-2-methylphenyl)pyrimidin-4-yl]amino}ethyl)phenyl]carbamate] | < 200 | < 500
Cc1c(Cl)cccc1-c1cc(NCCc2cccc(NC(=O)C3CC3)c2)nc(N)n1 [Example 84, N-[3-(2-{[2-amino-6-(3-chloro-2-methylphenyl)pyrimidin-4-yl]amino}ethyl)phenyl]cyclopropanecarboxamide] | < 200 | < 500
Cc1c(Cl)cccc1-c1cc(NCCc2cccc(NS(=O)(=O)CC(C)C)c2)nc(N)n1 [Example 85, N-[3-(2-{[2-amino-6-(3-chloro-2-methylphenyl)pyrimidin-4-yl]amino}ethyl)phenyl]-2-methylpropane-1-sulfonamide] | < 200 | < 500
Cc1c(Cl)cccc1-c1cc(NCCc2ccc(NS(=O)(=O)C(C)C)cc2)nc(N)n1 [Example 86, N-[4-(2-{[2-amino-6-(3-chloro-2-methylphenyl)pyrimidin-4-yl]amino}ethyl)phenyl]propane-2-sulfonamide] | < 200 | < 500
